Assay results: US20210221848A1, “POLYMYXIN DERIVATIVES AND THEIR USE IN COMBINATION THERAPY TOGETHER WITH DIFFERENT ANTIBIOTICS” (priority 2014, published 2021)
Where two headings read alike, the source gives them in different places.

Key:
[1] = system: K. pneumoniae; experiment: MIC in the presence of a fixed concentration (2 μg/mL) of Rifampicin; type: cell-based, Klebsiella pneumoniae; settings: Rifampicin 2 μg/mL, Table 5C
[2] = system: K. pneumoniae; experiment: MIC in 1:1 (wt:wt) combination with Rifampicin; type: cell-based, Klebsiella pneumoniae; settings: 1:1 (wt:wt) with Rifampicin, total drug concentration
Method: (§1) The inoculum was prepared by making a direct suspension of isolated colonies (selected from an 18-24 hour Mueller-Hinton agar plate) adjusted to the 0.5 McFarland standard. […] The assays were performed in duplicate. […] In cases where the duplicate values varied by less than 2-fold, the lower of the two values is reported. If a variation of greater than 2-fold was observed, the assay was considered non-valid. Several of the compounds were subjected to multiple tests, and where this is the case, the MIC reflects the modal value obtained.
(§2) MIC values (microgram/mL) refer to the total drug concentration (i.e. test agent plus Rifampicin).

[3] = system: P. aeruginosa; experiment: MIC in 1:1 (wt:wt) combination with Rifampicin; type: cell-based, Pseudomonas aeruginosa; settings: 1:1 (wt:wt) with Rifampicin, total drug concentration
Method: as §1, §2

[4] = system: K. pneumoniae strains with elevated MICs to Polymyxin B; experiment: MIC against strains with elevated MICs to Polymyxin B; type: cell-based, Klebsiella pneumoniae; settings: for MIC K. pneumoniae 062: strain 062, elevated MIC to Polymyxin B; for MIC K. pneumoniae 063: strain 063, elevated MIC to Polymyxin B; for MIC K. pneumoniae 064: strain 064, elevated MIC to Polymyxin B; for MIC K. pneumoniae 655: strain 655, elevated MIC to Polymyxin B
Summary of the method: (§3)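 Values are modal MICs where compounds were tested repeatedly, otherwise the lower of duplicates agreeing within 2-fold, with greater variation rejected. Inoculum: isolated colonies from 18-24 h Mueller-Hinton agar, suspended directly to 0.5 McFarland.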

[5] = system: A. baumanii strains with elevated MICs to Polymyxin B; experiment: as above; type: cell-based, Acinetobacter baumannii
Summary of the method: as §3

[6] = system: Acinetobacter baumannii NCTC 13301; settings: mouse lungs, A. baumannii NCTC 13301, SC at 2, 6 and 10 h post-infection, 16 h infection model
Method: On Day 0, animals were infected with 0.04 mL inoculum by intranasal instillation into mouse nostrils and were kept in an upright position on a string rack for ˜10 min post-infection. […] The vehicle control group (7 mice) was treated with 0.9% saline for injection at 2, 6 and 10 h post-infection.
Sixteen hours after infection, the mice were euthanized humanely. The lungs of each animal were harvested, homogenized and quantitatively cultured onto CLED agar for CFU determination. Decrease of the total CFU compared to control counts at 16 h post-infection was determined for each dose group.

[7] = system: A. baumannii
[8] = system: Escherichia coli ATCC 25922; settings: mouse thigh, 3.4 mg/kg/dose free base IV at 1, 3.5 and 6 h post-infection, 9 h model

With Polymyxin B [PMB, reference compound] as the substance, how does the “MIC in combination with Rifampicin, K. pneumoniae ATCC 4352” value ([1]; K. pneumoniae ATCC 4352) read?
The value was 0.06 micrograms/mL.

What about the “MIC in combination with Rifampicin, K. pneumoniae ATCC BAA-2146” value ([1]; K. pneumoniae ATCC BAA-2146) of the same substance?
Its value is 0.25 micrograms/mL.

And the “MIC in 1:1 combination with rifampicin, K. pneumoniae 062” value ([2]; K. pneumoniae 062)?
The value was 1 microgram/mL.

And the “MIC in 1:1 combination with rifampicin, K. pneumoniae CCUG 59348” value ([2]; K. pneumoniae CCUG 59348)?
The value was 1 microgram/mL.

What about the “MIC in 1:1 combination with rifampicin, P. aeruginosa 063” value ([3]; P. aeruginosa 063) of the same substance?
Its value is 16 microgram/mL.

And the “MIC in 1:1 combination with rifampicin, P. aeruginosa 068” value ([3]; P. aeruginosa 068)?
The value was 1 microgram/mL.

And the “MIC K. pneumoniae 062” value ([4]; Table 6D)?
The value was 128 micrograms/mL.

And the “MIC K. pneumoniae 062” value ([4]; Table 6F)?
Its value is 128 micrograms/mL.

And the “MIC K. pneumoniae 063” value ([4]; Table 6D)?
Its value is 32 micrograms/mL.

What about the “MIC K. pneumoniae 063” value ([4]; Table 6F) of the same substance?
Its value is 32 micrograms/mL.

What about the “MIC K. pneumoniae 064” value ([4]; Table 6D) of the same substance?
Its value is 8 micrograms/mL.

And the “MIC K. pneumoniae 064” value ([4]; Table 6F)?
The value was 8 micrograms/mL.

What about the “MIC K. pneumoniae 655” value ([4]; Table 6D) of the same substance?
The value was 32 micrograms/mL.

What about the “MIC K. pneumoniae 655” value ([4]; Table 6F) of the same substance?
Its value is 32 micrograms/mL.

What about the “MIC A. baumannii 053” value ([5]; strain 053, elevated MIC to Polymyxin B, Table 6D) of the same substance?
The value was 128 micrograms/mL.

What about the “MIC A. baumanii 053” value ([5]; strain 053, elevated MIC to Polymyxin B, Table 6F) of the same substance?
Its value is 128 micrograms/mL.

And the “MIC A. baumannii 056” value ([5]; strain 056, elevated MIC to Polymyxin B, Table 6D)?
Its value is 32 micrograms/mL.

What about the “MIC A. baumanii 056” value ([5]; strain 056, elevated MIC to Polymyxin B, Table 6F) of the same substance?
Its value is 32 micrograms/mL.

What about the “MIC A. baumannii 068” value ([5]; strain 068, elevated MIC to Polymyxin B, Table 6D) of the same substance?
The value was 8 micrograms/mL.

And the “MIC A. baumanii 068” value ([5]; strain 068, elevated MIC to Polymyxin B, Table 6F)?
The value was 8 micrograms/mL.

What about the “MIC A. baumannii 070” value ([5]; strain 070, elevated MIC to Polymyxin B, Table 6D) of the same substance?
Its value is 32 micrograms/mL.

What about the “MIC A. baumanii 070” value ([5]; strain 070, elevated MIC to Polymyxin B, Table 6F) of the same substance?
Its value is 32 micrograms/mL.

And the “Mean log10 CFU reduction vs. control” value ([6]; 2.6 mg/kg/dose free base)?
Its value is 0.79 log10 CFU.

And the “Mean log10 CFU reduction vs. control” value ([6]; 8.6 mg/kg/dose free base)?
The value was 0.58 log10 CFU.

And the “Mean log10 CFU reduction vs. control” value ([6]; 17.2 mg/kg/dose free base)?
Its value is 0.54 log10 CFU.

What about the “Mean log10 CFU reduction vs. control” value ([6]; 25.8 mg/kg/dose free base) of the same substance?
Its value is 1.10 log10 CFU.

What about the MIC ([7]; A. baumannii ATCC BAA-747) of the same substance?
Its MIC is 0.25 µg/mL.

And the “MIC, A. baumannii ATCC BAA-747” value ([7]; A. baumannii ATCC BAA-747, absence of a second agent, Table 6B)?
Its value is 0.25 micrograms/mL.

And the MIC ([7]; A. baumannii NCTC 13424)?
The MIC was 0.5 µg/mL.

What about the “MIC, A. baumannii NCTC 13424” value ([7]; A. baumannii NCTC 13424, absence of a second agent, Table 6B) of the same substance?
Its value is 0.5 micrograms/mL.

What about the “MIC, A. baumannii ATCC BAA-747” value ([7]; strain ATCC BAA-747, compound alone) of the same substance?
Its value is 0.25 micrograms/mL.

And the “MIC, A. baumannii NCTC 13424” value ([7]; strain NCTC 13424, compound alone)?
The value was 0.5 micrograms/mL.

And the “Mean log10 CFU reduction vs. control” value [8]?
The value was 4.32 log10 CFU.
